Read-outs that look alike come from different tables or passages of the source.
Tests used:
Test in all cases: HotSpot kinase profiling
Type in all cases: biochemical
[1] = molecular target: T1, MYO3b (Homo sapiens, UniProt Q8WXR4)
T1 construct: purchased Reaction Biology Corp
T1 sequence (Q8WXR4 1-1341): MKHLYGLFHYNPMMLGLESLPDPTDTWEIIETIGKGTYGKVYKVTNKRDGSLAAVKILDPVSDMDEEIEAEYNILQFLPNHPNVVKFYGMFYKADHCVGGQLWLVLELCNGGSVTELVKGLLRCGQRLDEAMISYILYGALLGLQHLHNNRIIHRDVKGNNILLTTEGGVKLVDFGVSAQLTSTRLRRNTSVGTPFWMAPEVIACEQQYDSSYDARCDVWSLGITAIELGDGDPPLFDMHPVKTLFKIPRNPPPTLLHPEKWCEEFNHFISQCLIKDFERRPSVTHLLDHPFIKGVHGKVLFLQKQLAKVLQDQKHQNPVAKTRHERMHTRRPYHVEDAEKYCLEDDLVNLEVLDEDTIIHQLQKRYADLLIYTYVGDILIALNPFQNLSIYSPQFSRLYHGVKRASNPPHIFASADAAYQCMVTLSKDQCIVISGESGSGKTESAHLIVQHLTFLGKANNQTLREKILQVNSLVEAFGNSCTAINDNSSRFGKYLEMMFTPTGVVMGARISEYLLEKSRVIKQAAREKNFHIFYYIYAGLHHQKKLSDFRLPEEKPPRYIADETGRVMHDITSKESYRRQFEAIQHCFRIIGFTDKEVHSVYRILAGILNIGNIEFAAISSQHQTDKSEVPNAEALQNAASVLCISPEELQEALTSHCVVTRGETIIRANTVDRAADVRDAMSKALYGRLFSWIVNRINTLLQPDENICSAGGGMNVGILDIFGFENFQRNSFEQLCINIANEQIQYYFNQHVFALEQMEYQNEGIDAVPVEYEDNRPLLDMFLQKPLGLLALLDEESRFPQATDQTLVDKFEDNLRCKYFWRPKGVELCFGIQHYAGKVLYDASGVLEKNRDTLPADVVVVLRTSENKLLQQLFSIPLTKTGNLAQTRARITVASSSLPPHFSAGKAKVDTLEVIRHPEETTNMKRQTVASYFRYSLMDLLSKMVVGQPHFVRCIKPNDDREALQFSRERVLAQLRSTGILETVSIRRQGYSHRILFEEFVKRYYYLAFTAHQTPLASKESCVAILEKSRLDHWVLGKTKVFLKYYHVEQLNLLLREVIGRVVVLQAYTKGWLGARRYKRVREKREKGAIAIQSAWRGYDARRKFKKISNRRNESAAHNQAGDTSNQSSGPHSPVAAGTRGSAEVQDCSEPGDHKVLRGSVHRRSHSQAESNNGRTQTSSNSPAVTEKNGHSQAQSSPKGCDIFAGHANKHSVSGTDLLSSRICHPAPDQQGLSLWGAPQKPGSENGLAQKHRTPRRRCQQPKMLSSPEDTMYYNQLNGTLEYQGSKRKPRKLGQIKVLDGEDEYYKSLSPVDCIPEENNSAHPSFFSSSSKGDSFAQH
Outline: (§1)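 Radiometric kinase assay with P81 filter capture; each kinase was added to fresh substrate plus cofactors in reaction buffer and incubated 2 h at room temperature. Unreacted phosphate was washed off with 0.1% phosphoric acid before detection; percent inhibition is relative to DMSO control, averaged over replicates.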

[2] = molecular target: T2, MUSK (Homo sapiens, UniProt O15146)
T2 construct: purchased Reaction Biology Corp
T2 sequence (O15146 24-869): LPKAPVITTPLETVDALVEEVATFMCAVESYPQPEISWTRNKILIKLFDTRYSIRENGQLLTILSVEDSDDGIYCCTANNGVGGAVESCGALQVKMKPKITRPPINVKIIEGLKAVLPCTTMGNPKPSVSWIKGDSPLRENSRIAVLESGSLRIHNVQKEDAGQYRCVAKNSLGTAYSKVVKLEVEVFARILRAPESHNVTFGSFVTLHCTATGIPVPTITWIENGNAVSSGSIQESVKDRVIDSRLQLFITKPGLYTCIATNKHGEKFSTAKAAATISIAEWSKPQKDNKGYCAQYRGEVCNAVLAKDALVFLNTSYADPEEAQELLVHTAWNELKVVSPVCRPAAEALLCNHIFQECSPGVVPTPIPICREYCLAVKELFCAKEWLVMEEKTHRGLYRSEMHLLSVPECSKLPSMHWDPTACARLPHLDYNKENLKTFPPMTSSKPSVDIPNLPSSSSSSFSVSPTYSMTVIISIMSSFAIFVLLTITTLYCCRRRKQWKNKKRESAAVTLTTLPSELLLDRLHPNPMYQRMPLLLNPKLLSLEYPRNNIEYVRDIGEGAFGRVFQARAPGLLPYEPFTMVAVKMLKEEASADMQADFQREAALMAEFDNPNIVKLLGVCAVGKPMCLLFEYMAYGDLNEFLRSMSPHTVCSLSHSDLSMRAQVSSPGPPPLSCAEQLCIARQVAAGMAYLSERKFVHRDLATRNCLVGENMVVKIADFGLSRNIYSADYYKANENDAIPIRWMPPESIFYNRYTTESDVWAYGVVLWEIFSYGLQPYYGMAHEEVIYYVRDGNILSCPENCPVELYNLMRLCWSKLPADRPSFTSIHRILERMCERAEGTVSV
Outline: as §1

[3] = molecular target: T3, CDK4/cyclin D1 (Homo sapiens, UniProt P11802)
T3 construct: purchased Reaction Biology Corp
T3 sequence (P11802 whole entry): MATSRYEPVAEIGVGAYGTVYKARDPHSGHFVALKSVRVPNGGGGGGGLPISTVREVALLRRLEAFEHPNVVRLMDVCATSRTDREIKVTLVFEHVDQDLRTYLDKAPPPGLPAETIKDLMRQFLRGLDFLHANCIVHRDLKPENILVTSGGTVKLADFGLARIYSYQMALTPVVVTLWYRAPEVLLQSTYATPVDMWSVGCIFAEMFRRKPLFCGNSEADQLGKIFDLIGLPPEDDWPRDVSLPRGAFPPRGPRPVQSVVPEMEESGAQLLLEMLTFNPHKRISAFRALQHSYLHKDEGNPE
T3 sequence (P24385 whole entry partner): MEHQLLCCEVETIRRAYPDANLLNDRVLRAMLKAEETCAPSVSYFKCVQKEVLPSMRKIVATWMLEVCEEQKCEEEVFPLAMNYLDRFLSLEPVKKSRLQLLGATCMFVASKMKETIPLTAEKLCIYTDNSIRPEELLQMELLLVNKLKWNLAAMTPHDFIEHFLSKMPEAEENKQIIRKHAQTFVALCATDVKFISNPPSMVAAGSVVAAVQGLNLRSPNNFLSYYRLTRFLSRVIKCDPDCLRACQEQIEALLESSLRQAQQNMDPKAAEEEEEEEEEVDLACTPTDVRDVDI
Outline: as §1

[4] = read-out: % Enzyme Activity (relative to DMSO controls) Run 1
[5] = read-out: % Enzyme Activity (relative to DMSO controls) Run 2

C=CC(=O)Nc1cccc(Nc2nc(Nc3ccc(OCCOC)c(F)c3)ncc2F)c1 [Compound 2]
inhibition at 3 µM [1]: -2.59%
remaining activity at 3 µM [1, 4]: 104%
remaining activity at 3 µM [1, 5]: 102%
inhibition at 3 µM [2]: 30.9%
remaining activity at 3 µM [2, 4]: 70.2%
remaining activity at 3 µM [2, 5]: 68%
inhibition at 3 µM [3]: 4.07%
remaining activity at 3 µM [3, 4]: 95.6%
remaining activity at 3 µM [3, 5]: 96.3%

Source: patent US9492471B2, “Methods of treating a disease or disorder associated with Bruton'S Tyrosine Kinase” (Celgene Avilomics Research, Inc., priority 2013, dated 2016)
